Test system: tobacco budworm (Heliothis virescens [Fabricius])
Assay: surface-treated diet test, insecticidal activity against tobacco budworm
Type: in vivo
Details: 0.25 millimoles of candidate insecticide on the surface of the diet, second instar larvae, five-day exposure; for Percent Mortality: compared to total number of insects infested; for Percent Growth Inhibition: inhibition of insect weight relative to untreated controls
Summary of the method: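 Wheat germ artificial diet surface-treated with compound from 50 mM DMSO stock diluted 1:7 in 1:1 water/acetone (0.25 millimolar on diet), or lower-rate dilutions; DMSO-only controls. One second-instar larva per well, 25° C, 60% RH, 14 h light, five days; percent weight inhibition versus untreated and percent mortality scored.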

Structure (SMILES) | Percent Mortality [%] | Percent Growth Inhibition [%]
CCCOc1ccc(C[N+]2([O-])CCC(O)(C(O)(c3ccc(C(F)(F)F)cc3)c3ccc(C(F)(F)F)cc3)CC2)cc1 (stereo not drawn) [Compound 121] | 100 | 100
[O-][N+]1(CCOc2ccc(Br)cc2)CCC(O)(C(c2ccc(OC(F)(F)F)cc2)c2ccc(OC(F)(F)F)cc2)CC1 (stereo not drawn) [Compound 482] | 100 | 100
OC1(C(c2ccc(OC(F)(F)F)cc2)c2ccc(Cl)c(Cl)c2)CCN(Cc2ccc(Oc3ccccn3)cc2)CC1 (stereo not drawn) [Compound 441] | 100 | 100
O=C([O-])CCCCCC(=O)O.OC1(C(c2ccc(OC(F)(F)F)cc2)c2ccc(OC(F)(F)F)cc2)CC[N+](O)(Cc2ccc(Oc3ccccn3)cc2)CC1 (stereo not drawn) [Compound 514] | 100 | 100
[O-][N+]1(Cc2ccc(-c3ncccn3)cc2)CCC(O)(C(c2ccc(OC(F)(F)F)cc2)c2ccc(OC(F)(F)F)cc2)CC1 (stereo not drawn) [Compound 116] | 100 | 100
OC1(C(c2ccc(OC(F)(F)F)cc2)c2ccc(OC(F)(F)F)cc2)CCN(Cc2ccc(C=NOCC(F)(F)F)cc2)CC1 [Compound 301] | 100 | 100
